From US20240190851A1, “FURAN FUSED RING-SUBSTITUTED GLUTARIMIDE COMPOUND” (MEDSHINE DISCOVERY INC., priority 2021, published 2024)
Counter-ions that a name gives are not always drawn.

Legend:
[1] = tested on: human prostate cancer LNCaP cells; assay: Antiproliferative effect in LNCaP cells (CellTiter-Glo, 6 days); format: cell-based; conditions: 144 h
Method: In this experiment, the inhibitory effect of the test compound on cell proliferation in human prostate cancer LNCaP cells was detected.
The tumor cell lines were cultured in a 37° C., 5% CO2 incubator under the above culture conditions. Regular passage, and cells in logarithmic growth phase were taken for plating.
2. Cell Plating • (1) Cells were stained with trypan blue and viable cells were counted; • (2) the cell concentration was adjusted to an appropriate concentration;
• (3) 90 μL of cell suspension per well was added to the culture plate as shown in the table above, and cell-free culture medium was added to the blank control well; • (4) the culture plate was cultured overnight in a 37° C., 5% CO2 incubator with 100% relative humidity.
Preparation of stock solution storage plate with 400 times the initial concentration of the compound: The compound was serially diluted with DMSO from the highest concentration to the lowest concentration. The solution was prepared as needed each time.
Preparation of Working Solution with 10 Times the Initial Concentration of Compounds and Cell Treatment with Compounds • (1) To a V-bottom 96-well plate was added 78 μL of cell culture medium, and 2 μL of compound was pipetted from a stock solution storage plate with 400 times the initial concentration of the compound and added to the cell culture medium of the 96-well plate. To vehicle control and blank control was added 2 μL of DMSO. After the compound or DMSO was added, blowing with a pipette and mixing well were carried out. • (2) Administration: 10 μL of a working solution with 10 times the initial concentration of the compound was added to the cell culture plate. To vehicle control and blank control was added 10 μL of DMSO-cell culture medium mixture. • (3) The 96-well plate was returned to the incubator and cultured for 6 days.
The following steps were performed according to the instructions of Promega CellTiter-Glo luminescent cell viability assay kit (Promega-G7573). • (1) CellTiter-Glo buffer was melted and brought to room temperature; • (2) CellTiter-Glo substrate was brought to room temperature; • (3) CellTiter-Glo working solution was prepared by adding 100 mL of CellTiter-Glo buffer to a vial of CellTiter-Glo substrate to dissolve the substrate; • (4) the mixture was slowly vortexed and shaken to be fully dissolved; • (5) the cell culture plate was taken out and left for 30 minutes to equilibrate to room temperature; • (6) 50 μL of CellTiter-Glo working solution was added per well (equal to half the volume of cell culture medium per well). The cell plate was wrapped in aluminum foil to be protected from light; • (7) the culture plate was shaken on an orbital shaker for 2 minutes to induce cell lysis; (8) the culture plate was left at room temperature for 10 minutes to stabilize the luminescent signal; • (9) the luminescent signal was detected on a 2104 EnVision plate reader.
The inhibition rate (IR) of the test compound was calculated using the following formula: IR (%)=(RLU vehicle control−RLU compound)/(RLU vehicle control−RLU blank control)×100%. The inhibition rates of compounds at different concentrations were calculated in Excel, and then GraphPad Prism software was used to plot inhibition curves and calculate relevant parameters, including minimum inhibition rate, maximum inhibition rate, and ICSO.

androgen receptor AR = molecular target: T1, androgen receptor AR (Homo sapiens, UniProt P10275, T878A); assay: AR degradation in LNCaP cells by ICW method; format: cell-based; conditions: 24 hours
T1 construct: degradation effect of compounds on androgen receptor AR in LNCaP cells; endogenous in cells; host or cells: LNCaP
T1 sequence (P10275 1-920 T878A): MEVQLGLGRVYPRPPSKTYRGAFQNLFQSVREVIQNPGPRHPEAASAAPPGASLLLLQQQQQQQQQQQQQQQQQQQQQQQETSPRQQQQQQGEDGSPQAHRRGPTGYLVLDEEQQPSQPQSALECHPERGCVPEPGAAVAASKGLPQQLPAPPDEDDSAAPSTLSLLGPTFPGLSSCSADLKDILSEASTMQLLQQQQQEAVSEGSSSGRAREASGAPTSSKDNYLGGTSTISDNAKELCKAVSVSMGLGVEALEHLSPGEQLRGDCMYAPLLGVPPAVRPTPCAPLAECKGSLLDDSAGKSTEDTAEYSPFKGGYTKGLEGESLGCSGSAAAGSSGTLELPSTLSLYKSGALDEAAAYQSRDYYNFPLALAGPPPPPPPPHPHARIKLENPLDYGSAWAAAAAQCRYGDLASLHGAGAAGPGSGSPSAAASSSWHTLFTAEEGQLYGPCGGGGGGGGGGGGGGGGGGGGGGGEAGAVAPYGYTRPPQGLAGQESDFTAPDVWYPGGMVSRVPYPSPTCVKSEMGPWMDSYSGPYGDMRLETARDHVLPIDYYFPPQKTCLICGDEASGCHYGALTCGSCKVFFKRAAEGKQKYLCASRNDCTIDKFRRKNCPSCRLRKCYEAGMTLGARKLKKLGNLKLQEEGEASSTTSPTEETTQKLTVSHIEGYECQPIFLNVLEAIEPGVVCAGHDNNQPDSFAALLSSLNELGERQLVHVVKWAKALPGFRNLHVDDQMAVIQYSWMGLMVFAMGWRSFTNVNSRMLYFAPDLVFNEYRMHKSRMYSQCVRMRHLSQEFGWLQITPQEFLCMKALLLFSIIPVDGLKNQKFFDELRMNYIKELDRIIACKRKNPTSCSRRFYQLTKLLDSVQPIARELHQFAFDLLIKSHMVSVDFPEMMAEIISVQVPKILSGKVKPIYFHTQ
Method: Experimental purpose: To test the degradation effect of compounds on androgen receptor AR in LNCaP cells by ICW method.
Day 1 • 1. The cell culture medium, 0.025% trypsin, and phosphate buffered saline were preheated in a 37° C. water bath. • 2. Cells digested by trypsin were centrifuged at 1000 rpm for 5 minutes. The supernatant was discarded, and then the cells were resuspended in fresh culture medium. • 3. The cells were inoculated in a COL-Coated CellCarrier-384 plate at a density of 4 k/[…]/well. • 4. The 384 cell plate inoculated with cells was placed in an ultra-clean bench for 10 minutes. • 5. The cell plate was cultured overnight in a CO2 cell incubator.
Day 2 • 1. The compound at a concentration of 10 mM was diluted to 3 mM (3 μL+7 μL of dimethyl sulfoxide) before serial dilution. • 2. The compound was serially diluted 3-fold (4 μL+8 μL) in an Echo plate using Bravo. • 3. ZPE and HPE control wells were setup, and the ZPE control wells were dimethyl sulfoxide. • 4. The Echo plate was centrifuged at 1000 rpm for 1 minute, and then the diluted compound was transferred from the Echo plate to an intermediate plate using Echo with 200 nL/well. • 5. To the intermediate plate was added the cell culture medium using Multidrop combi with […]. • 6. The intermediate plate was shaken on a horizontal shaker for 1 minute to mix the compound well with the culture medium. • 7. The compound was transferred from the intermediate dilution plate to the cell plate using Bravo with 4 μL/well. • 8. The cell plate was shaken on the horizontal shaker for 1 minute, and centrifuged at 800 rpm for 30 seconds. • 9. The cell plate was returned to the CO2 incubator, and cultured for another 24 hours.
Day 3 • 1. 4% paraformaldehyde was removed from the refrigerator and brought to room temperature. • 2. The cell plate was removed from the incubator. • 3. To the cell plate was directly added 4% paraformaldehyde with 40 μL/well. • 4. The plate was incubated at room temperature for 20 minutes. • 5. The culture medium was manually shaken off from the cell plate, inverted in a centrifuge, and centrifuged at 800 rpm for 7 seconds to fully remove the residual culture medium. • 6. To the cell plate was added 4% paraformaldehyde with 25 μL/well. • 7. The plate was incubated at room temperature for 30 minutes. • 8. The paraformaldehyde solution was manually shaken off from the cell plate, inverted in the centrifuge, and centrifuged at 800 rpm for 7 seconds. • 9. 0.1% Trition was added with 25 μL/well. • 10. The plate was incubated at room temperature for 10 minutes. • 11. The 0.1% Trition solution was manually shaken off from the cell plate, inverted in the centrifuge, and centrifuged at 800 rpm for 7 seconds. • 12. Intercept® (PBS) blocking buffer was added with 25 μL/well. • 13. The plate was incubated at room temperature for 1 hour. • 14. The Intercept® (PBS) blocking buffer solution was manually shaken off from the cell plate, inverted in the centrifuge, and centrifuged at 800 rpm for 7 seconds. • 15. Primary antibody solution was added with 20 μL/well. The cell plate was placed in the centrifuge, and centrifuged at 800 rpm for 7 seconds. • 16. The cell plate was sealed, and then incubated overnight at 4° C.
Day 4 • 1. The primary antibody solution was manually shaken off from the cell plate, inverted in the centrifuge, and centrifuged at 800 rpm for 7 seconds. • 2. The plate was washed three times with 110 μL of PBS. • 3. The cell plate was inverted in the centrifuge, and centrifuged at 800 rpm for 7 seconds. • 4. Secondary antibody and DAPI solution was added with 20 μL/well. The cell plate was placed in the centrifuge, and centrifuged at 800 rpm for 7 seconds. • 5. The plate was incubated at room temperature for 1 hour. • 6. The secondary antibody and DAPI solution was manually shaken off from the cell plate, inverted in the centrifuge, and centrifuged at 800 rpm for 7 seconds. • 7. […]

[2] = tested on: human prostate cancer LNCaP xenograft tumor; assay: In vivo pharmacodynamic study, LNCaP subcutaneous xenograft tumor CB-17 SCID model; set-up: species or system CB-17 SCID mice; conditions: Enzalutamide 20 mg/kg p.o. QD
Method: Human prostate cancer LNCaP cells (ECACC-89110211) were cultured in vitro in a monolayer under the culture conditions of RPMI-1640 medium with 10% fetal bovine serum, […], and 100 μg/mL streptomycin, and cultured in a 37° C., 5% CO2 incubator.
Routine digestion with trypsin-EDTA was performed twice a week for passaging. When the cell saturation density was 80% to 90% and the number of cells reached the required level, the cells were collected, counted, and inoculated.
CB-17 SCID mice, 6 to 8 weeks old, male, weighing 18 to 22 g.
0.2 mL (1×10^7) of LNCaP cells (with matrix gel, volume ratio of 1:1) were subcutaneously inoculated on the right back of each mouse. The mice were subjected to surgical castration when the average tumor volume reached approximately 80 mm^3, and grouping and administration were initiated when the average tumor volume reached 166 mm^3.
Tumor diameters were measured twice a week with a vernier caliper. The formula for calculating tumor volume was: V=0.5a×b^2, wherein a and b represented the long and short diameters of the tumor, respectively.
The antitumor efficacy of compounds was evaluated by TGI (%). TGI (%) reflected the tumor growth inhibition rate. TGI (0%)=[(1−(average tumor volume at the end of administration in a treatment group−average tumor volume at the beginning of administration in this treatment group))/(average tumor volume at the end of treatment in the vehicle control group−average tumor volume at the beginning of treatment in the vehicle control group)]×100%.

Which IC50 [1] does the source give for `CC1(C)C(=O)N(c2ccc(C#N)c(C(F)(F)F)c2)C(=S)N1c1ccc(OCCN2CCN(CC(=O)Nc3ccc4c(ccc5occ(C6CCC(=O)NC6=O)c54)c3)CC2)c(F)c1` (centres unmarked) [WX003] here?
Its IC50 is 230 nM.

For `CC1(C)C(=O)N(c2ccc(C#N)c(C(F)(F)F)c2)C(=S)N1c1ccc(OCCN2CCN(CCCc3ccc4c(C5CCC(=O)NC5=O)coc4c3)CC2)c(F)c1` (centres unmarked) [WX004], which IC50 [1] is on record?
The IC50 was 25 nM.

For `CC1(C)C(=O)N(c2ccc(C#N)c(C(F)(F)F)c2)C(=S)N1c1ccc(OCCN2CCN(CC(=O)Nc3cccc4c3ccc3occ(C5CCC(=O)NC5=O)c34)CC2)c(F)c1` (centres unmarked) [WX009], which DC50 (androgen receptor AR) is on record?
Its DC50 is 10.1 nM.

And the Dmax (androgen receptor AR)?
The Dmax was 64.7%.

Which IC50 [1] does the source give for `CC1(C)C(=O)N(c2ccc(C#N)c(C(F)(F)F)c2)C(=S)N1c1ccc(OCCN2CCN(C3(C(=O)Nc4ccc5occ(C6CCC(=O)NC6=O)c5c4)CC3)CC2)c(F)c1` (centres unmarked) [WX005] here?
The IC50 was 190 nM.

`CNC(=O)c1ccc(N2C(=S)N(c3ccc(C#N)c(C(F)(F)F)c3)C(=O)C2(C)C)cc1F` [Enzalutamide, reference compound] was tested. Which “Tumor volume (Day 0)” value ([2]; Day 0, start of administration) did it give?
The value was 166 ± 18 mm^3.

And the “TGI (Day 21)” value ([2]; Day 21)?
Its value is 101.9%.

And the “Tumor volume (Day 21)” value ([2]; Day 21)?
The value was 157 ± 37 mm^3.

With `N#Cc1ccc(O[C@H]2CC[C@H](NC(=O)c3ccc(N4CCC(CN5CCN(c6ccc7c(ccc8occ(C9CCC(=O)NC9=O)c87)c6)CC5)CC4)nn3)CC2)cc1Cl` (some centres unmarked) [Hydrochloride of WX014] as the compound, how does the DC50 (androgen receptor AR) read?
Its DC50 is 22.4 nM.

What about the Dmax (androgen receptor AR) of the same compound?
Its Dmax is 76.2%.

Which IC50 [1] does the source give for `CC1(C)C(=O)N(c2ccc(C#N)c(C(F)(F)F)c2)C(=S)N1c1ccc(OCCN2CCN(CC(=O)Nc3ccc4occ(C5CCC(=O)NC5=O)c4c3)CC2)c(F)c1` (centres unmarked) [WX001] here?
The IC50 was 333 nM.
